# Where “and” joins values, the source holds several entries; their conditions need not be identical. Equal values may be shown once. Read-outs that look alike come from different tables or passages of the source.
# What was measured:
# [1] = tested on: WbbL-dependent O-Ag synthesis in E. coli expressing wbbL; format: cell-based, Escherichia coli
# [2] = tested on: E. coli cells with or without wbbL; test: Growth inhibition / toxicity of 2 with E. coli (OD600); conditions: ~2 mM / low millimolar concentrations of 2, E. coli +/- wbbL
# [3] = target: T. thermophilus RfbF (Thermus thermophilus, UniProt Q72KB9); test: Isothermal titration calorimetry (ITC) binding measurements with RfbF; conditions: ITC
# T. thermophilus RfbF, sequence (Q72KB9 entry or part of it): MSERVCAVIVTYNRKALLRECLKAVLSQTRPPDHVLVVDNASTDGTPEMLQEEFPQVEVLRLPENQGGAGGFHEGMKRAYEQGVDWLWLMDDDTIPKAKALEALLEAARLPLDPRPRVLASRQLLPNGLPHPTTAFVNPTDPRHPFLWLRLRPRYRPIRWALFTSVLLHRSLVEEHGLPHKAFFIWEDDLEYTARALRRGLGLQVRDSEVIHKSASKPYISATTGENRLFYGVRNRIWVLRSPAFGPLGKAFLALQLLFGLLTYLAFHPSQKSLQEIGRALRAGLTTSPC
# [4] = target: E. coli WbbL (Escherichia coli, UniProt P36667); test: In vitro inhibition assay of E. coli WbbL with monosaccharides and compound 2; format: biochemical; conditions: 250 µM dTDP-β-L-Rha, 1 mM GlcNAc-PP-undecaprenol
# E. coli WbbL, sequence (P36667 whole entry, looked up): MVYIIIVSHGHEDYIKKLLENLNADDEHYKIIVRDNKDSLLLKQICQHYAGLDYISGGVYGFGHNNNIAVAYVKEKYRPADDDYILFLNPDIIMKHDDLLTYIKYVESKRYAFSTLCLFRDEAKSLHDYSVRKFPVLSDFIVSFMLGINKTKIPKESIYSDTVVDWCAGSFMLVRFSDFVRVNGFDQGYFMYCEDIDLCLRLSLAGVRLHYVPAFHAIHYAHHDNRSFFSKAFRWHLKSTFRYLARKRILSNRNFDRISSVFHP
# Protocol: Primers were purchased from Invitrogen and sequencing was completed by GENEWIZ (Azenta) or EtonBio. Chemicals were purchased from Sigma Aldrich, CarboSynth, Fisher Scientific, and Cayman without further purification. 1H, 13C, and 31P NMR spectra were recorded on a Bruker Avance III 400, 500, or 600 MHz instrument. All spectra were calibrated using residual non-deuterated solvent as an internal reference and processed using MestReNova (authorized to NYU). Gel filtration purification and analyses was performing using at AKTA pure 15 L instrument (UNICORN™ software, GE Healthcare). HRMS analyses were acquired on an Agilent 6224 Accurate-Mass time-of-flight LC/MS (LC-TOF) spectrometer equipped with an electrospray ionization (ESI) source with an autosampler. GraphPad Prism software 9.0 was used for all plotting and data analysis unless otherwise noted. Statistical significance of grouped data was assessed using paired t-tests in Prism. For the IC50 calculation, data were fit in Prism using the equation log(inhibitor) versus response (three parameters): y = bottom + (top-bottom)/(1+10^(X-log IC50)) based on the assumption the Hill slope would be 1, as predicted by ITC results with n ~ 1 for donor ligands. Data was normalized to controls without enzyme and with no inhibitor added. Confidence intervals were calculated based on the standard error. 1M TEAB buffer was prepared by suspending triethylamine (1 mol, 139 mL) in water (700 mL) and passing carbon dioxide (from evaporated dry ice) through the mixture until the pH=7.5. The buffer was diluted to 1L and stored as a stock solution at 4 °C. Prior to use it was diluted to 50 mM in deionized H2O […]
# Methods for protein and cellular biochemistry/bioinformatics used in this study.
# Bioinformatic approach to identify Thermus thermophilus RfbF as a putative glycolipid RT.
# The Carbohydrate-Active Enzymes Database (CAZy.org) was used to identify thermophilic organisms with annotated glycosyltransferases (GTs).11-12 Genes annotated as wbbL have been experimentally shown to encode dTDP-rhamnosyltransferases that transfer L-Rha onto N-acetyl--a-D-glucosamine-1-diphospholipid acceptors.13-14 In Shigella flexneri, the protein encoded by rfbF was noted to carry out the same biochemical activity as WbbL based on genetic and LPS analyses.15-16 Both E. coli WbbL and S. flexneri RfbF belong to the GT2 family. A CAZy search for rfbF and wbbL was performed in the genomes of Gram-negative extreme thermophiles, which […]
# (GenBank: AAS80876.1), which had not yet been biochemically characterized. Protein ANalysis […]
# thermodynamic values were evaluated using ITCRun software (TA Instruments) and fit with a […]
# Specific activities were determined by modification of the protocol outlined by Li et al. […]
# [5] = tested on: crude Mtb WbbL; conditions: cited from earlier work
# [6] = 25 °C, ligand titrated into 110 µM RfbF
Compound,"reduction of O-Ag levels by densitometry ([1]; E. coli expressing wbbL grown with 2 versus untreated, silver stain / anti-O16 blot of purified LPS)","reduction of LPS produced versus untreated cells ([1]; E. coli expressing wbbL grown with ~2 mM 2, equivalent number of cells, mass of extracted LPS)","toxicity to E. coli (growth, OD600) [2]",binding to RfbF by ITC (in words) ([3]; ligand titrated into 110 µM RfbF),"Kd ([3]; KD (beyond measurable limit), 5-10 mM ligand titrated into 110 µM RfbF)","IC50 ([4]; 0.0101 mg/mL E. coli WbbL, 95% confidence interval, read-out: half maximal inhibitory concentration (IC50))","inhibition at 5000 µM ([4]; 5 mM inhibitor, 8 min)",Km [5],"ΔG [3, 6]","ΔH [3, 6]","ΔS [3, 6]","Kd ([3]; 25 °C, ligand titrated into 110 µM RfbF, one-site model, spread = SD, triplicate, read-out: KD)","Kd ([3]; KD, 25 °C, ligand titrated into 110 µM RfbF, one-site model, spread = SD, triplicate)"
"C[C@@H]1NC[C@H](O)[C@H](O)[C@H]1O [compound 2, 1,5-dideoxy-1,5-imino-L-rhamnitol]",~40%,> 50%,not toxic,no measurable binding,> 1000 µM,~3000 µM and 3160 µM,~53%,–,–,–,–,–,–
"Cc1cn(C2CC(O)C(COP(=O)(O)OP(=O)(O)OC3OC(C)C(O)C(O)C3O)O2)c(=O)[nH]c1=O [dTDP-β-L-Rha, reference compound]",–,–,–,–,–,–,–,~35 µM,-6.77 (.38) kcal/mol,-8.68 (0.59) kcal/mol,-6.43 (0.68) cal/mol·K,~8 µM,8.31 ± 3.66 µM
